# Test results as given in ChEMBL document CHEMBL5649169 (ChemMedChem, 2018).
# Columns and labels:
# [1] = target: Coronin-1A (Homo sapiens) (UniProt P31146)
# [2] = target: Large ribosomal subunit protein uL11 (Homo sapiens) (UniProt P30050)
# [3] = target: 28S rRNA (cytosine(4447)-C(5))-methyltransferase (Homo sapiens) (UniProt P46087)
# [4] = target: Integrin alpha-6 (Homo sapiens) (UniProt P23229)
# [5] = target: Fructose-bisphosphate aldolase A (Homo sapiens) (UniProt P04075)
# [6] = target: Microtubule-associated protein 1B (Homo sapiens) (UniProt P46821)
# [7] = target: Dolichyl-diphosphooligosaccharide--protein glycosyltransferase subunit KCP2 (Homo sapiens) (UniProt Q8N6L1)
# Sequence of Dolichyl-diphosphooligosaccharide--protein glycosyltransferase subunit KCP2 (Homo sapiens) (Q8N6L1 whole entry): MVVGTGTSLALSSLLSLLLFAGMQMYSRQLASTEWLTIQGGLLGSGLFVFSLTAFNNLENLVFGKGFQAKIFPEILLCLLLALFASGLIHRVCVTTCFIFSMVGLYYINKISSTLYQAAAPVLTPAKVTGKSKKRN
# [8] = target: Cytoplasmic dynein 1 heavy chain 1 (Homo sapiens) (UniProt Q14204)
# [9] = organism: Homo sapiens
# [10] = target: Actin-related protein 2/3 complex subunit 1B (Homo sapiens) (UniProt O15143)
# [11] = target: Small ribosomal subunit protein eS7 (Homo sapiens) (UniProt P62081)
# [12] = target: Ezrin (Homo sapiens) (UniProt P15311)
# [13] = target: Rho guanine nucleotide exchange factor 2 (Homo sapiens) (UniProt Q92974)
# Sequence of Rho guanine nucleotide exchange factor 2 (Homo sapiens) (Q92974 whole entry): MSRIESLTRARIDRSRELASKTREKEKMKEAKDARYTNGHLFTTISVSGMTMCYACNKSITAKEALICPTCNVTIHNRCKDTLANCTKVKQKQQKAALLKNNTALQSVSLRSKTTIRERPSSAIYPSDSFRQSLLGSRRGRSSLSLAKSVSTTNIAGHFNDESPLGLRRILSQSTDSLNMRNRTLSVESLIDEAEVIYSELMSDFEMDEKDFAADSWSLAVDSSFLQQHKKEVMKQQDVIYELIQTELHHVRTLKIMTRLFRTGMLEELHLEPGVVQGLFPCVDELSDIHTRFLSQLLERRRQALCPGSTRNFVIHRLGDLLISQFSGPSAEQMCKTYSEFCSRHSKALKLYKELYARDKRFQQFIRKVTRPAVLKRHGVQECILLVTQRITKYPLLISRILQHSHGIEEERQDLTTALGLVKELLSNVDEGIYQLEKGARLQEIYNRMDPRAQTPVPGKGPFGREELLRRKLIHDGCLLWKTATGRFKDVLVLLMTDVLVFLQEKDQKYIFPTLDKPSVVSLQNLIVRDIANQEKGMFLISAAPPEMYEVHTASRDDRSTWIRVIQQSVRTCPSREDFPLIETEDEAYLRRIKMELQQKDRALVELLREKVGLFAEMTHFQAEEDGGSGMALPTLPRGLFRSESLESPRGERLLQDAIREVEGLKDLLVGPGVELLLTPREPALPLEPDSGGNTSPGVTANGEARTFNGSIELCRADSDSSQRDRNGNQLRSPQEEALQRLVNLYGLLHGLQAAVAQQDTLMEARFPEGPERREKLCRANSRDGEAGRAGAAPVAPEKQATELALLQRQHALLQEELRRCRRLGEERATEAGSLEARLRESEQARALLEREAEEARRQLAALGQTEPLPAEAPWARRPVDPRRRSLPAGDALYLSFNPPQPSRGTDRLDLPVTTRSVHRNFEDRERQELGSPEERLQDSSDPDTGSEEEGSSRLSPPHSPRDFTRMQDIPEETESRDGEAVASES
# [14] = target: Large ribosomal subunit protein uL18 (Homo sapiens) (UniProt P46777)
# [15] = target: Nuclear pore complex protein Nup93 (Homo sapiens) (UniProt Q8N1F7)
# Sequence of Nuclear pore complex protein Nup93 (Homo sapiens) (Q8N1F7 whole entry, one chain of several): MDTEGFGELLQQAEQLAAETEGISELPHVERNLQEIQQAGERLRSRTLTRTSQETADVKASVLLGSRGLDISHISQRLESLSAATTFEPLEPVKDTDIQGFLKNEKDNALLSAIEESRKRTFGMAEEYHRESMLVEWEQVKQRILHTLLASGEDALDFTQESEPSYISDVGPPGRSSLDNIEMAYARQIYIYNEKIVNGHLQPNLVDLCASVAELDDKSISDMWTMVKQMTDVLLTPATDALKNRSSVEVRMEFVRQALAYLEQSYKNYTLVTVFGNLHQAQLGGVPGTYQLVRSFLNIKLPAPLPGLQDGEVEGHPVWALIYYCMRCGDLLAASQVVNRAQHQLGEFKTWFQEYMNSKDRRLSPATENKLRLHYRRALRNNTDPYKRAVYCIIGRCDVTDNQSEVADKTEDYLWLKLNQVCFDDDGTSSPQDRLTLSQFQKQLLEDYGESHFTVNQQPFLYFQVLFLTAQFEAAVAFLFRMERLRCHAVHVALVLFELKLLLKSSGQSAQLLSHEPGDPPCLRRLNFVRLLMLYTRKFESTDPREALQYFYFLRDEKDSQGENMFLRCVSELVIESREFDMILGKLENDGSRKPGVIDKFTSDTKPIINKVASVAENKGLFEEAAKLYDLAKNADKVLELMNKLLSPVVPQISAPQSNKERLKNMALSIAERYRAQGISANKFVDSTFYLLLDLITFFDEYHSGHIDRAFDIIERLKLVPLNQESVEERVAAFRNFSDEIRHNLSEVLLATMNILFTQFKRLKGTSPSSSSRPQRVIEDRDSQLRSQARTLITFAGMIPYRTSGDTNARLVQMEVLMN
# [16] = target: Serine/threonine-protein kinase ATR (Homo sapiens) (UniProt Q13535)
# [17] = target: Translocon-associated protein subunit gamma (Homo sapiens) (UniProt Q9UNL2)
# [18] = target: DNA repair protein RAD50 (Homo sapiens) (UniProt Q92878)
# [19] = target: 26S proteasome regulatory subunit 6B (Homo sapiens) (UniProt P43686)
# [20] = target: Dynein light chain 2, cytoplasmic (Homo sapiens) (UniProt Q96FJ2)
# Sequence of Dynein light chain 2, cytoplasmic (Homo sapiens) (Q96FJ2 whole entry, looked up): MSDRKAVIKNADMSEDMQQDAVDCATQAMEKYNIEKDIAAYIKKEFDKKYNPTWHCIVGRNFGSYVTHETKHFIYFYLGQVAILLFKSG
# [21] = target: Small ribosomal subunit protein uS7 (Homo sapiens) (UniProt P46782)
# [22] = target: Serine/threonine-protein kinase SIK2 (Homo sapiens) (UniProt Q9H0K1)
# [23] = target: Junction plakoglobin (Homo sapiens) (UniProt P14923)
# [24] = target: Adenosine 3'-phospho 5'-phosphosulfate transporter 1 (Homo sapiens) (UniProt Q8TB61)
# Sequence of Adenosine 3'-phospho 5'-phosphosulfate transporter 1 (Homo sapiens) (Q8TB61 whole entry): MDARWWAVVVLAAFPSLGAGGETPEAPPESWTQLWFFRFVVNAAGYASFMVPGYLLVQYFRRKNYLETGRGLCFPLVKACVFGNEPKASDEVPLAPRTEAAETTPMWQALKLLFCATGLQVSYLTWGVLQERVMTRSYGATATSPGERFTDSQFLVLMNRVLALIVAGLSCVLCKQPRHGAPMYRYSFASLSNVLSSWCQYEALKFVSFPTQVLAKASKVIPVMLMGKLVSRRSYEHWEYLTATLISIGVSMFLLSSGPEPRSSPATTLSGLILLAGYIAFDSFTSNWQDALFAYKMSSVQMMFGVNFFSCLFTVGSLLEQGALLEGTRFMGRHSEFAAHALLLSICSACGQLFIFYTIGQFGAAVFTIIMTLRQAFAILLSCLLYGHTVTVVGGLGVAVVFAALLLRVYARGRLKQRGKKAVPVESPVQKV
# [25] = target: Nuclear cap-binding protein subunit 1 (Homo sapiens) (UniProt Q09161)
# [26] = target: Zinc finger CCCH domain-containing protein 11A (Homo sapiens) (UniProt O75152)
# [27] = target: Very-long-chain enoyl-CoA reductase (Homo sapiens) (UniProt Q9NZ01)
# [28] = target: HLA class I histocompatibility antigen, A alpha chain (Homo sapiens) (UniProt P04439)
# [29] = target: Sodium/potassium-transporting ATPase subunit beta-1 (Homo sapiens) (UniProt P05026)
# [30] = target: Cytochrome c1, heme protein, mitochondrial (Homo sapiens) (UniProt P08574)
# [31] = target: Membrane-associated tyrosine- and threonine-specific cdc2-inhibitory kinase (Homo sapiens) (UniProt Q99640)
# [32] = target: dCTP pyrophosphatase 1 (Homo sapiens) (UniProt Q9H773)
# [33] = target: 26S proteasome regulatory subunit 4 (Homo sapiens) (UniProt P62191)
# [34] = target: Poly(U)-binding-splicing factor PUF60 (Homo sapiens) (UniProt Q9UHX1)
# [35] = target: D-3-phosphoglycerate dehydrogenase (Homo sapiens) (UniProt O43175)
# [36] = target: Phosphoenolpyruvate carboxykinase [GTP], mitochondrial (Homo sapiens) (UniProt Q16822)
# Sequence of Phosphoenolpyruvate carboxykinase [GTP], mitochondrial (Homo sapiens) (Q16822 whole entry): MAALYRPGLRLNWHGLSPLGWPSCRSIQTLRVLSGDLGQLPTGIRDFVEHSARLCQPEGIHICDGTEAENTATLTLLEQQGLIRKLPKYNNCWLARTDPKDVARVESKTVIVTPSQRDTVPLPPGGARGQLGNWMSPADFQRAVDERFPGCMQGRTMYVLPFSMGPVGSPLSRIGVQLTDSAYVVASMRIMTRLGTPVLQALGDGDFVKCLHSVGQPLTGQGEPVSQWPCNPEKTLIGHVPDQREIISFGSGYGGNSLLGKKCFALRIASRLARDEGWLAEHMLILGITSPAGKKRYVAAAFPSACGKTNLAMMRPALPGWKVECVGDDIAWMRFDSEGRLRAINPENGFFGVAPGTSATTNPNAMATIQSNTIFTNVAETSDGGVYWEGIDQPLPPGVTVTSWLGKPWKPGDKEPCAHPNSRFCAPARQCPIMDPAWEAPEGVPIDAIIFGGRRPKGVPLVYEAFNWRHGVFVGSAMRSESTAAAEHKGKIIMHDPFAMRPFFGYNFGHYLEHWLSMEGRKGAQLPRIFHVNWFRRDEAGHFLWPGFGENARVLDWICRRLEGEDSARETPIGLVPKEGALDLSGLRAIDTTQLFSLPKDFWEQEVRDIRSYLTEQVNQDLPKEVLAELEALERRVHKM
# [37] = target: Methionine--tRNA ligase, cytoplasmic (Homo sapiens) (UniProt P56192)
# [38] = target: SWI/SNF complex subunit SMARCC2 (Homo sapiens) (UniProt Q8TAQ2)
# [39] = target: Malectin (Homo sapiens) (UniProt Q14165)
# Sequence of Malectin (Homo sapiens) (Q14165 whole entry): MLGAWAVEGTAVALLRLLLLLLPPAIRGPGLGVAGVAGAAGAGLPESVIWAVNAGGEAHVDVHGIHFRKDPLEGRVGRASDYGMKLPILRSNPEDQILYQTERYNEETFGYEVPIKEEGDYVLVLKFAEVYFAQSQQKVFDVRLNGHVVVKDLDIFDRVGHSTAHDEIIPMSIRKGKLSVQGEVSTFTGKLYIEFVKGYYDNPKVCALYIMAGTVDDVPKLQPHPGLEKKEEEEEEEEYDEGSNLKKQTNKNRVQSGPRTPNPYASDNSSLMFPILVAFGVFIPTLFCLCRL
# [40] = target: G2/mitotic-specific cyclin-B2 (Homo sapiens) (UniProt O95067)
# [41] = target: Cyclin-dependent kinase 7 (Homo sapiens) (UniProt P50613)
# [42] = target: ATP-binding cassette sub-family E member 1 (Homo sapiens) (UniProt P61221)
# [43] = target: Pre-mRNA-processing-splicing factor 8 (Homo sapiens) (UniProt Q6P2Q9)
# [44] = target: Serine palmitoyltransferase 1 (Homo sapiens) (UniProt O15269)
# [45] = target: Dual specificity protein kinase CLK1 (Homo sapiens) (UniProt P49759)
# Sequence of Dual specificity protein kinase CLK1 (Homo sapiens) (P49759 whole entry, looked up): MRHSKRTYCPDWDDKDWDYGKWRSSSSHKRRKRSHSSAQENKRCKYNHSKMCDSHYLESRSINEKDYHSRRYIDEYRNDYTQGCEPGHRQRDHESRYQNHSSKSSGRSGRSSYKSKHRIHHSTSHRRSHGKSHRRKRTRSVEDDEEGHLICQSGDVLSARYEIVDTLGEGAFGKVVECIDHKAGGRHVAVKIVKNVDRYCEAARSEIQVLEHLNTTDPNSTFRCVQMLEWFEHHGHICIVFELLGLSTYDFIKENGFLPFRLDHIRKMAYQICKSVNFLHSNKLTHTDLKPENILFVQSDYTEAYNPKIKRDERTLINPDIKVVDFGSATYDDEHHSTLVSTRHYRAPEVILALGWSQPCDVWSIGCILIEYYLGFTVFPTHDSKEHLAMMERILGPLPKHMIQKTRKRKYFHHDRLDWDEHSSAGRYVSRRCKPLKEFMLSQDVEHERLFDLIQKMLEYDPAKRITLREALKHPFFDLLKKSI
# [46] = target: Protein LSM12 (Homo sapiens) (UniProt Q3MHD2)
# Sequence of Protein LSM12 (Homo sapiens) (Q3MHD2 whole entry): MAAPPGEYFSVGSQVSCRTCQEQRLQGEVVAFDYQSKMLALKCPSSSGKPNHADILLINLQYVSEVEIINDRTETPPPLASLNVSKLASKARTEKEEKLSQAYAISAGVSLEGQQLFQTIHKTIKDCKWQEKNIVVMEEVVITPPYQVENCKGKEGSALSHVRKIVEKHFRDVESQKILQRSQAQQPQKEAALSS
# Note: assay method not described here.
# Sequence of Coronin-1A (Homo sapiens) (P31146 whole entry): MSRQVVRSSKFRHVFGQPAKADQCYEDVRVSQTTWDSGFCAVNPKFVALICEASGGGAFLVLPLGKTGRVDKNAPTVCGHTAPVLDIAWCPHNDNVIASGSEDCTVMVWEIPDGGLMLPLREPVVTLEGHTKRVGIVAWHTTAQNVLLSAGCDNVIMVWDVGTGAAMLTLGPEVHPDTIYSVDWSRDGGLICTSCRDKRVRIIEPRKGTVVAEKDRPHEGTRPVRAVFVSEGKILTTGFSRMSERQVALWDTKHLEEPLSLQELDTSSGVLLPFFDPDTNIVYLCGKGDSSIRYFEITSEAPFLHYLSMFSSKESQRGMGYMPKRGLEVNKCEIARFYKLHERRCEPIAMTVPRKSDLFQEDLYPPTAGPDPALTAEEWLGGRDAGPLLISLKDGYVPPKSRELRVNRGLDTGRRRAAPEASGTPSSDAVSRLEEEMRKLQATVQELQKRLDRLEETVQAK
# Sequence of Fructose-bisphosphate aldolase A (Homo sapiens) (P04075 whole entry): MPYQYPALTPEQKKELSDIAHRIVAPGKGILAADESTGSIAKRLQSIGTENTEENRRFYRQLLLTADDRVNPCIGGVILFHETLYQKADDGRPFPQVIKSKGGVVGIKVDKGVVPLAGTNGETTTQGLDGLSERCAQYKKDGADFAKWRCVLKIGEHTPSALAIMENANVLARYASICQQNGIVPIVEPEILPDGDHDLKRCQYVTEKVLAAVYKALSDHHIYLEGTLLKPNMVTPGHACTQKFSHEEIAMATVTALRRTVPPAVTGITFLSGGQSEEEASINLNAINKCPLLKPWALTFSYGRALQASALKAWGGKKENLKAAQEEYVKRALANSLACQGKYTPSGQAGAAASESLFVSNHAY
structure (smiles),measurement,setting,value
Cc1ccc(C(=O)Nc2cccc(C(F)(F)F)c2)cc1Nc1nc(-c2cccnc2)nc2c1cnn2C,ED50,[1],16.5 µM
same,ED50,[2],3.63 µM
same,ED50,[3],0.000204 µM
same,ED50,[4],0.0163 µM
same,ED50,[5],3.97 µM
same,ED50,[6],0.0244 µM
same,ED50,[7],0.164 µM
same,ED50,[8],1.3 µM
same,ED50,[9],3.42 µM
same,ED50,[10],115 µM
same,ED50,[11],2.24 µM
same,ED50,[12],7.29 µM
same,ED50,[13],9.51 µM
same,ED50,[14],0.862 µM
same,ED50,[15],3.25 µM
same,ED50,[16],4.47 µM
same,ED50,[17],12.7 µM
same,ED50,[18],8.82 µM
same,ED50,[19],6.14 µM
same,ED50,[20],0.148 µM
same,ED50,[21],0.176 µM
same,ED50,[22],2.14 µM
same,ED50,[23],23.1 µM
same,ED50,[24],0.0218 µM
same,ED50,[25],0.000799 µM
same,ED50,[26],0.149 µM
same,ED50,[27],3.86 µM
same,ED50,[28],19000 µM
same,ED50,[29],0.0536 µM
same,ED50,[30],0.00055 µM
same,ED50,[31],0.00995 µM
same,ED50,[32],5.18 µM
same,ED50,[33],91.8 µM
same,ED50,[34],11 µM
same,ED50,[35],0.00945 µM
same,ED50,[36],0.398 µM
same,ED50,[37],0.0806 µM
same,ED50,[38],21.8 µM
same,ED50,[39],95.1 µM
same,ED50,[40],3.13 µM
same,ED50,[41],0.0338 µM
same,ED50,[42],13.8 µM
same,ED50,[43],93.7 µM
same,ED50,[44],0.613 µM
same,ED50,[45],32.5 µM
same,ED50,[46],0.00519 µM
Cc1ccc(C(=O)Nc2cccc(C(F)(F)F)c2)cc1Nc1nc(-c2cccnc2)nc2nn(C)cc12,ED50,[1],0.0507 µM
same,ED50,[2],0.0513 µM
same,ED50,[3],0.366 µM
same,ED50,[4],7.19 µM
same,ED50,[5],0.0716 µM
same,ED50,[6],0.01 µM
same,ED50,[7],7.59 µM
same,ED50,[8],51200 µM
same,ED50,[9],0.545 µM
same,ED50,[10],0.0545 µM
same,ED50,[11],6.99 µM
same,ED50,[12],0.0827 µM
same,ED50,[13],0.0484 µM
same,ED50,[14],11.5 µM
same,ED50,[15],1.55 µM
same,ED50,[16],0.0106 µM
same,ED50,[17],0.0505 µM
same,ED50,[18],1.74 µM
same,ED50,[19],0.508 µM
same,ED50,[20],0.459 µM
same,ED50,[21],0.0501 µM
same,ED50,[22],8.18 µM
same,ED50,[23],12.7 µM
same,ED50,[24],39.2 µM
same,ED50,[25],1.78 µM
same,ED50,[26],3.88 µM
same,ED50,[27],1.31 µM
same,ED50,[28],0.0554 µM
same,ED50,[29],0.0335 µM
same,ED50,[30],0.0293 µM
same,ED50,[31],0.0846 µM
same,ED50,[32],0.0305 µM
same,ED50,[33],0.00477 µM
same,ED50,[34],0.00583 µM
same,ED50,[35],15 µM
same,ED50,[36],0.429 µM
same,ED50,[37],6.54 µM
same,ED50,[38],0.0058 µM
same,ED50,[39],7.05 µM
same,ED50,[40],13.5 µM
same,ED50,[41],0.0647 µM
same,ED50,[42],0.000362 µM
same,ED50,[43],0.553 µM
same,ED50,[44],0.107 µM
same,ED50,[45],0.000313 µM
same,ED50,[46],5.58 µM
